# Non-standard residues stand in square brackets, D forms with d. Residues, ends and D or L forms follow the SMILES beside them. Sar = CNCC(=O)O
# Molecular target: T1, furin (Homo sapiens, UniProt P09958)
# T1 construct: made in house; host or cells: Drosophila S2 cells (Invitrogen expression system)
# Test: biochemical
# Details: furin, Pyr-RTKR-AMC substrate; N-terminal deletions (Example 2, Table 6); read-out: Ki
# T1 sequence (P09958 108-794 limits assumed): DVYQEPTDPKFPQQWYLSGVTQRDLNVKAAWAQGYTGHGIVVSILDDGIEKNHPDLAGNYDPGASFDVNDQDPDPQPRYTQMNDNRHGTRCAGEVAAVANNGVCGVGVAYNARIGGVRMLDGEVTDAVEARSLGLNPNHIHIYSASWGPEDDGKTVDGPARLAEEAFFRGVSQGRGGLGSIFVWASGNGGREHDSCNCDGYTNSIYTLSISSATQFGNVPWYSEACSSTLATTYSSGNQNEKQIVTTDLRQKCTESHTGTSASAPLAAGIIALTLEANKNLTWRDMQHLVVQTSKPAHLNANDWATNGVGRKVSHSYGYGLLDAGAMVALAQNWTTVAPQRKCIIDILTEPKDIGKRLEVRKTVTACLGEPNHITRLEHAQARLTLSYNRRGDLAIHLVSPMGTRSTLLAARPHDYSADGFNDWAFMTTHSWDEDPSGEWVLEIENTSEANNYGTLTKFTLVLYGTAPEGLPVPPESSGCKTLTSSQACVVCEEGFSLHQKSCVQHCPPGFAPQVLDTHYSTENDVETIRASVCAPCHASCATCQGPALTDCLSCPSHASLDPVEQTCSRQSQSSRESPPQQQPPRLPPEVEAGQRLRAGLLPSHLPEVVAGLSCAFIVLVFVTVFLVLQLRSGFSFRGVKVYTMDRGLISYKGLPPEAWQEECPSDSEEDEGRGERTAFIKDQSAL
row,Compound,Ki [nM]
1,C[C@H](NC(=O)[C@H](CCCNC(=N)N)NC(=O)[C@@H]1CCCN1)C(=O)N[C@@H](CCCNC(=N)N)C(=O)N[C@@H](CCCNC(=N)N)C(=O)N[C@@H](CCCNC(=N)N)C(=O)N[C@@H](CCCCN)C(=O)N[C@@H](CCCCN)C(=O)N[C@@H](CCCNC(=N)N)C(=O)N[C@H](C(N)=O)[C@@H](C)O,16.6

# Same assay, conditions: furin, Pyr-RTKR-AMC substrate; alanine scanning mutagenesis of the H5 furin cleavage sequence (Table 2); read-out: Ki
row,Compound,Ki [nM]
1,C[C@H](NC(=O)[C@H](CCCCN)NC(=O)[C@H](CCCCN)NC(=O)[C@H](CCCNC(=N)N)NC(=O)[C@H](CCCNC(=N)N)NC(=O)[C@H](CCCNC(=N)N)NC(=O)[C@H](CCC(=O)O)NC(=O)[C@H](CCCNC(=N)N)NC(=O)[C@@H]1CCCN1C(=O)[C@@H](N)[C@@H](C)O)C(N)=O (H-TPRERRRKKA-NH2),> 100
2,C[C@@H](O)[C@H](N)C(=O)N1CCC[C@H]1C(=O)N[C@@H](CCCNC(=N)N)C(=O)N[C@@H](CCC(=O)O)C(=O)N[C@@H](CCCNC(=N)N)C(=O)N[C@@H](CCCNC(=N)N)C(=O)N[C@@H](CCCNC(=N)N)C(=O)N[C@@H](CCCCN)C(=O)N[C@@H](CCCCN)C(=O)N[C@@H](CCCNC(=N)N)C(N)=O (H-TPRERRRKKR-NH2),> 100
3,C[C@H](NC(=O)[C@H](C)NC(=O)[C@H](CCCNC(=N)N)NC(=O)[C@H](CCCNC(=N)N)NC(=O)[C@H](CCC(=O)O)NC(=O)[C@H](CCCNC(=N)N)NC(=O)[C@@H]1CCCN1C(=O)[C@@H](N)[C@@H](C)O)C(=O)N[C@@H](CCCCN)C(=O)N[C@@H](CCCNC(=N)N)C(N)=O (H-TPRERRAAKR-NH2),> 100
4,C[C@H](NC(=O)[C@H](C)NC(=O)[C@H](CCCNC(=N)N)NC(=O)[C@H](CCCNC(=N)N)NC(=O)[C@H](CCCNC(=N)N)NC(=O)[C@H](CCC(=O)O)NC(=O)[C@H](CCCNC(=N)N)NC(=O)[C@@H]1CCCN1C(=O)[C@@H](N)[C@@H](C)O)C(=O)N[C@@H](CCCNC(=N)N)C(N)=O,> 100
5,CC(C)[C@H](NC(=O)[C@H](C)NC(=O)[C@H](C)NC(=O)[C@H](CCCCN)NC(=O)[C@H](CCCNC(=N)N)NC(=O)[C@H](CCCNC(=N)N)NC(=O)[C@H](CCCNC(=N)N)NC(=O)[C@H](CCC(=O)O)NC(=O)[C@H](CCCNC(=N)N)NC(=O)[C@@H]1CCCN1C(=O)[C@@H](N)[C@@H](C)O)C(N)=O (H-TPRERRRKAAV-NH2),> 100
6,CC(C)[C@H](NC(=O)[C@H](CCCNC(=N)N)NC(=O)[C@H](CCCCN)NC(=O)[C@H](CCCCN)NC(=O)[C@H](CCCNC(=N)N)NC(=O)[C@H](CCCNC(=N)N)NC(=O)[C@H](C)NC(=O)[C@H](C)NC(=O)[C@H](C)NC(=O)[C@@H]1CCCN1C(=O)[C@@H](N)[C@@H](C)O)C(N)=O (H-TPAAARRKKRV-NH2),> 100
7,CC(C)[C@H](NC(=O)[C@H](CCCNC(=N)N)NC(=O)[C@H](CCCCN)NC(=O)[C@H](C)NC(=O)[C@H](CCCNC(=N)N)NC(=O)[C@H](CCCNC(=N)N)NC(=O)[C@H](CCCNC(=N)N)NC(=O)[C@H](CCC(=O)O)NC(=O)[C@H](CCCNC(=N)N)NC(=O)[C@@H]1CCCN1C(=O)[C@@H](N)[C@@H](C)O)C(N)=O (H-TPRERRRAKRV-NH2),> 100
8,C[C@H](NC(=O)[C@H](C)NC(=O)[C@@H]1CCCN1C(=O)[C@@H](N)[C@@H](C)O)C(=O)N[C@@H](C)C(=O)N[C@@H](CCCNC(=N)N)C(=O)N[C@@H](CCCNC(=N)N)C(=O)N[C@@H](CCCCN)C(=O)N[C@@H](CCCCN)C(=O)N[C@@H](CCCNC(=N)N)C(=O)N(C)CC(N)=O (H-TPAAARRKKR[Sar]-NH2),> 100
9,C[C@H](NC(=O)[C@@H]1CCCN1C(=O)[C@@H](N)[C@@H](C)O)C(=O)N[C@@H](CCC(=O)O)C(=O)N[C@@H](CCCNC(=N)N)C(=O)N[C@@H](CCCNC(=N)N)C(=O)N[C@@H](CCCNC(=N)N)C(=O)N[C@@H](CCCCN)C(=O)N[C@@H](CCCCN)C(=O)N[C@@H](CCCNC(=N)N)C(N)=O (H-TPAERRRKKR-NH2),> 100
10,C[C@H](N)C(=O)N1CCC[C@H]1C(=O)N[C@@H](CCCNC(=N)N)C(=O)N[C@@H](CCC(=O)O)C(=O)N[C@@H](CCCNC(=N)N)C(=O)N[C@@H](CCCNC(=N)N)C(=O)N[C@@H](CCCNC(=N)N)C(=O)N[C@@H](CCCCN)C(=O)N[C@@H](CCCCN)C(=O)N[C@@H](CCCNC(=N)N)C(N)=O (H-APRERRRKKR-NH2),> 100
11,C[C@H](N)C(=O)N[C@@H](C)C(=O)N[C@@H](C)C(=O)N[C@@H](CCC(=O)O)C(=O)N[C@@H](CCCNC(=N)N)C(=O)N[C@@H](CCCNC(=N)N)C(=O)N[C@@H](CCCNC(=N)N)C(=O)N[C@@H](CCCCN)C(=O)N[C@@H](CCCCN)C(=O)N[C@@H](CCCNC(=N)N)C(N)=O (H-AAAERRRKKR-NH2),> 100
12,C[C@H](NC(=O)[C@H](C)NC(=O)[C@H](CCC(=O)O)NC(=O)[C@H](CCCNC(=N)N)NC(=O)[C@@H]1CCCN1C(=O)[C@@H](N)[C@@H](C)O)C(=O)N[C@@H](CCCNC(=N)N)C(=O)N[C@@H](CCCCN)C(=O)N[C@@H](CCCCN)C(=O)N[C@@H](CCCNC(=N)N)C(=O)N(C)CC(N)=O (H-TPREAARKKR[Sar]-NH2),> 100
13,CC(C)[C@H](NC(=O)[C@H](CCCNC(=N)N)NC(=O)[C@H](CCCCN)NC(=O)[C@H](CCCCN)NC(=O)[C@H](CCCNC(=N)N)NC(=O)[C@H](CCCNC(=N)N)NC(=O)[C@H](C)NC(=O)[C@H](C)NC(=O)[C@H](CCCNC(=N)N)NC(=O)[C@@H]1CCCN1C(=O)[C@@H](N)[C@@H](C)O)C(N)=O (H-TPRAARRKKRV-NH2),> 100
14,CC(C)[C@H](NC(=O)[C@H](CCCNC(=N)N)NC(=O)[C@H](CCCCN)NC(=O)[C@H](CCCCN)NC(=O)[C@H](CCCNC(=N)N)NC(=O)[C@H](CCCNC(=N)N)NC(=O)[C@H](CCCNC(=N)N)NC(=O)[C@H](CCC(=O)O)NC(=O)[C@H](CCCNC(=N)N)NC(=O)[C@@H]1CCCN1C(=O)[C@@H](N)[C@@H](C)O)C(N)=O (H-TPRERRRKKRV-NH2),> 100
15,C[C@H](NC(=O)[C@H](C)NC(=O)[C@H](CCCCN)NC(=O)[C@H](CCCNC(=N)N)NC(=O)[C@H](CCCNC(=N)N)NC(=O)[C@H](CCCNC(=N)N)NC(=O)[C@H](CCC(=O)O)NC(=O)[C@H](CCCNC(=N)N)NC(=O)[C@@H]1CCCN1C(=O)[C@@H](N)[C@@H](C)O)C(=O)NCC(N)=O (H-TPRERRRKAAG-NH2),> 100

# Same assay, conditions: furin, Pyr-RTKR-AMC substrate; optimization of the inhibitory peptides (Table 3); read-out: Ki
row,Compound,Ki [nM]
1,C[C@@H](O)[C@H](N)C(=O)N1CCC[C@H]1C(=O)N[C@@H](CCC(N)=O)C(=O)N[C@@H](CCCNC(=N)N)C(=O)N[C@@H](Cc1c[nH]cn1)C(=O)N[C@@H](CCCNC(=N)N)C(=O)N[C@@H](CCCNC(=N)N)C(=O)N[C@@H](CCCNC(=N)N)C(=O)N[C@@H](CCCCN)C(=O)N[C@@H](CCCCN)C(=O)N[C@@H](CCCNC(=N)N)C(=O)NCC(N)=O (H-TPQRHRRRKKRG-NH2),> 100
2,C[C@H](NC(=O)[C@H](CCCNC(=N)N)NC(=O)[C@H](CCC(N)=O)NC(=O)[C@@H]1CCCN1C(=O)[C@@H](N)[C@@H](C)O)C(=O)N[C@@H](CCCNC(=N)N)C(=O)N[C@@H](CCCNC(=N)N)C(=O)N[C@@H](CCCNC(=N)N)C(=O)N[C@@H](CCCCN)C(=O)N[C@@H](CCCCN)C(=O)N[C@@H](CCCNC(=N)N)C(=O)N[C@@H](CC(=O)O)C(N)=O (H-TPQRARRRKKRD-NH2),50
3,C[C@@H](O)[C@H](N)C(=O)N1CCC[C@H]1C(=O)N[C@@H](CCC(N)=O)C(=O)N[C@@H](CCCNC(=N)N)C(=O)N[C@@H](CCC(N)=O)C(=O)N[C@@H](CCCNC(=N)N)C(=O)N[C@@H](CCCNC(=N)N)C(=O)N[C@@H](CCCNC(=N)N)C(=O)N[C@@H](CCCCN)C(=O)N[C@@H](CCCCN)C(=O)N[C@@H](CCCNC(=N)N)C(=O)NCC(N)=O (H-TPQRQRRRKKRG-NH2),> 100
4,C[C@@H](O)[C@H](N)C(=O)N1CCC[C@H]1C(=O)N[C@@H](CCC(N)=O)C(=O)N[C@@H](CCCNC(=N)N)C(=O)NCCC(=O)N[C@@H](CCCNC(=N)N)C(=O)N[C@@H](CCCNC(=N)N)C(=O)N[C@@H](CCCNC(=N)N)C(=O)N[C@@H](CCCCN)C(=O)N[C@@H](CCCCN)C(=O)N[C@@H](CCCNC(=N)N)C(=O)NCC(N)=O [TPQR1RRRKKRG],> 100
5,C[C@H](NC(=O)[C@H](CCCNC(=N)N)NC(=O)[C@H](CCC(N)=O)NC(=O)[C@@H]1CCCN1C(=O)[C@@H](N)[C@@H](C)O)C(=O)N[C@@H](CCCNC(=N)N)C(=O)N[C@@H](CCCNC(=N)N)C(=O)N[C@@H](CCCNC(=N)N)C(=O)N[C@@H](CCCCN)C(=O)N[C@@H](CCCCN)C(=O)N[C@@H](CCCNC(=N)N)C(=O)N[C@@H](Cc1c[nH]cn1)C(N)=O (H-TPQRARRRKKRH-NH2),> 100
6,C[C@@H](O)[C@H](N)C(=O)N1CCC[C@H]1C(=O)N[C@@H](CCC(N)=O)C(=O)N[C@@H](CCCNC(=N)N)C(=O)N[C@@H](Cc1c[nH]c2ccccc12)C(=O)N[C@@H](CCCNC(=N)N)C(=O)N[C@@H](CCCNC(=N)N)C(=O)N[C@@H](CCCNC(=N)N)C(=O)N[C@@H](CCCCN)C(=O)N[C@@H](CCCCN)C(=O)N[C@@H](CCCNC(=N)N)C(=O)NCC(N)=O (H-TPQRWRRRKKRG-NH2),> 100
7,C[C@H](NC(=O)[C@H](CCCNC(=N)N)NC(=O)[C@H](CCC(N)=O)NC(=O)[C@@H]1CCCN1C(=O)[C@@H](N)[C@@H](C)O)C(=O)N[C@@H](CCCNC(=N)N)C(=O)N[C@@H](CCCNC(=N)N)C(=O)N[C@@H](CCCNC(=N)N)C(=O)N[C@@H](CCCCN)C(=O)N[C@@H](CCCCN)C(=O)N[C@@H](CCCNC(=N)N)C(=O)N[C@@H](Cc1ccc(O)cc1)C(N)=O (H-TPQRARRRKKRY-NH2),47
8,C[C@@H](O)[C@H](N)C(=O)N1CCC[C@H]1C(=O)N[C@@H](CCC(N)=O)C(=O)N[C@@H](CCCNC(=N)N)C(=O)NCC(=O)N[C@@H](CCCNC(=N)N)C(=O)N[C@@H](CCCNC(=N)N)C(=O)N[C@@H](CCCNC(=N)N)C(=O)N[C@@H](CCCCN)C(=O)N[C@@H](CCCCN)C(=O)N[C@@H](CCCNC(=N)N)C(=O)NCC(N)=O (H-TPQRGRRRKKRG-NH2),> 100
9,C[C@H](NC(=O)[C@H](CCCNC(=N)N)NC(=O)[C@H](CCC(N)=O)NC(=O)[C@@H]1CCCN1C(=O)[C@@H](N)[C@@H](C)O)C(=O)N[C@@H](CCCNC(=N)N)C(=O)N[C@@H](CCCNC(=N)N)C(=O)N[C@@H](CCCNC(=N)N)C(=O)N[C@@H](CCCCN)C(=O)N[C@@H](CCCCN)C(=O)N[C@@H](CCCNC(=N)N)C(=O)N[C@@H](Cc1ccccc1)C(N)=O (H-TPQRARRRKKRF-NH2),44

# Source: patent US8053553B2, “Targeting host proteinases as a therapeutic strategy against viral and bacterial pathogens” (Socpra Sciences Sante Et Humaines, priority 2007, dated 2011)
